Measured values published in patent US20230278972A1, “SUBSTITUTED HALOALKYL SULFONANILIDE HERBICIDES” (FMC Corporation, priority 2020, published 2023).

Assays:
Assay type in all cases: in vivo
kochia (Bassia scoparia) [1] = test: Test A postemergence, kochia; conditions: Postemergence, 0 to 100 scale (0 no effect, 100 complete control)
Outline: (§1)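 Pots: loam soil/sand blend. Pre: directed soil spray at planting. Post: plants 2–10 cm, 1–2 leaf stage. Formulation: non-phytotoxic solvent + surfactant.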

[2] = tested on: ragweed (common ragweed, Ambrosia artemisiifolia); test: Test A preemergence, ragweed; conditions: Preemergence; for Plant response rating, Ragweed: 0 to 100 scale (0 no effect, 100 complete control); for Ragweed plant response rating: 125 g ai/ha, visual injury on 0 to 100 scale (0 no effect, 100 complete control), approximately 10 days
Outline: as §1

[3] = tested on: Ryegrass, Italian (Italian ryegrass, Lolium multiflorum); test: Test A preemergence, Ryegrass, Italian; conditions: Preemergence; for Plant response rating, Ryegrass, Italian: 0 to 100 scale (0 no effect, 100 complete control); for Ryegrass, Italian plant response rating: 125 g ai/ha, visual injury on 0 to 100 scale (0 no effect, 100 complete control), approximately 10 days
Outline: as §1

[4] = tested on: barnyardgrass (Echinochloa crus-galli); test: Test A preemergence, barnyardgrass; conditions: Preemergence; for Plant response rating, Barnyardgrass: 0 to 100 scale (0 no effect, 100 complete control); for Barnyardgrass plant response rating: 125 g ai/ha, visual injury on 0 to 100 scale (0 no effect, 100 complete control), approximately 10 days
Outline: as §1

[5] = tested on: wheat (Triticum aestivum); test: Test A postemergence, wheat; conditions: Postemergence, 0 to 100 scale (0 no effect, 100 complete control)
Outline: (§2)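 Formulated with a surfactant in a non-phytotoxic solvent, compounds are applied to loam–sand pots, either to bare soil immediately after seeding (preemergence) or to seedlings of 2 to 10 cm bearing one to two leaves (postemergence).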

[6] = tested on: ragweed (common ragweed, Ambrosia artemisiifolia); test: Test A postemergence, ragweed; conditions: Postemergence, 0 to 100 scale (0 no effect, 100 complete control)
Outline: as §1

[7] = tested on: Foxtail, Giant (giant foxtail, Setaria faberi); test: Test A preemergence, Foxtail, Giant; conditions: Preemergence; for Plant response rating, Foxtail, Giant: 0 to 100 scale (0 no effect, 100 complete control); for Foxtail, Giant plant response rating: 125 g ai/ha, visual injury on 0 to 100 scale (0 no effect, 100 complete control), approximately 10 days
Outline: as §1

[8] = tested on: blackgrass (Alopecurus myosuroides); test: Test A postemergence, blackgrass; conditions: Postemergence, 0 to 100 scale (0 no effect, 100 complete control)
Outline: as §1

[9] = tested on: Foxtail, Giant (giant foxtail, Setaria faberi); test: Test A postemergence, Foxtail, Giant; conditions: Postemergence, 0 to 100 scale (0 no effect, 100 complete control)
Outline: as §1

corn (Zea mays) = test: Test A postemergence, corn; conditions: Postemergence, 0 to 100 scale (0 no effect, 100 complete control)
Outline: as §1

[10] = tested on: pigweed (Amaranthus retroflexus); test: Test A postemergence, pigweed; conditions: Postemergence, 0 to 100 scale (0 no effect, 100 complete control)
Outline: as §1

[11] = tested on: barnyardgrass (Echinochloa crus-galli); test: Test A postemergence, barnyardgrass; conditions: Postemergence, 0 to 100 scale (0 no effect, 100 complete control)
Outline: as §2

[12] = tested on: pigweed (Amaranthus retroflexus); test: Test A preemergence, pigweed; conditions: for Plant response rating, Pigweed: 0 to 100 scale (0 no effect, 100 complete control); for Pigweed plant response rating: 125 g ai/ha, visual injury on 0 to 100 scale (0 no effect, 100 complete control), approximately 10 days
Outline: as §2

[13] = tested on: Ryegrass, Italian (Italian ryegrass, Lolium multiflorum); test: Test A postemergence, Ryegrass, Italian; conditions: Postemergence, 0 to 100 scale (0 no effect, 100 complete control)
Outline: as §1

[14] = tested on: galium (catchweed bedstraw, Galium aparine); test: Test A postemergence, galium; conditions: Postemergence, 0 to 100 scale (0 no effect, 100 complete control)
Outline: as §2

kochia (Bassia scoparia) [15] = test: Test A preemergence, kochia; conditions: Preemergence; for Plant response rating, Kochia: 0 to 100 scale (0 no effect, 100 complete control); for Kochia plant response rating: 125 g ai/ha, visual injury on 0 to 100 scale (0 no effect, 100 complete control), approximately 10 days
Outline: as §1

[16] = 125 g ai/ha, visual injury approx. 10 days
[17] = 31 g ai/ha, visual injury, approx. 10 days
[18] = 1000 g ai/ha, visual injury, approx. 10 days

Compound | Plant response rating, Kochia (kochia (Bassia scoparia) [1]; 31 g ai/ha) | Plant response rating, Kochia (kochia (Bassia scoparia) [1]; [16]) | Plant response rating, Ragweed [2, 17] | Ragweed plant response rating [2] | Plant response rating, Ryegrass, Italian [3, 17] | Ryegrass, Italian plant response rating [3] | Plant response rating, Barnyardgrass [4, 17] | Barnyardgrass plant response rating [4] | Plant response rating, Wheat ([5]; 31 g ai/ha) | Plant response rating, Wheat [5, 16] | Plant response rating, Ragweed ([6]; 31 g ai/ha) | Plant response rating, Ragweed [6, 16] | Plant response rating, Foxtail, Giant [7, 17] | Foxtail, Giant plant response rating [7] | Plant response rating, Blackgrass ([8]; 31 g ai/ha) | Plant response rating, Blackgrass [8, 16] | Plant response rating, Foxtail, Giant ([9]; 31 g ai/ha) | Plant response rating, Foxtail, Giant [9, 16] | Plant response rating, Corn (corn (Zea mays); 31 g ai/ha) | Plant response rating, Corn (corn (Zea mays); [16]) | further results
Cc1cc(C(=O)N2CCOC(C)(C)C2)cc(NS(=O)(=O)C(F)(F)F)c1Cl [Compound 2] | 10 | 20 | 30 | 90 | 30 | 50 | 0 | 60 | 40 | 60 | 30 | 80 | 80 | 80 | 0 | 0 | 20 | 50 | 20 | 30 | Plant response rating, Pigweed ([10]; 31 g ai/ha): 60; Plant response rating, Pigweed [10, 16]: 70; Plant response rating, Barnyardgrass ([11]; 31 g ai/ha): 30; Plant response rating, Barnyardgrass [11, 16]: 80; Plant response rating, Pigweed [12, 17]: 100; Pigweed plant response rating [12]: 100; Plant response rating, Ryegrass, Italian ([13]; 31 g ai/ha): 0; Plant response rating, Ryegrass, Italian [13, 16]: 40; Plant response rating, Galium ([14]; 31 g ai/ha): 90; Plant response rating, Galium [14, 16]: 90; Plant response rating, Kochia (kochia (Bassia scoparia) [15]; [17]): 20; Kochia plant response rating (kochia (Bassia scoparia) [15]): 50
CSC1CCCN(C(=O)c2cc(NS(=O)(=O)C(F)(F)F)c(C)cc2C)C1 (centres unmarked) [Compound 3] | 10 | 40 | 0 | 70 | 20 | 70 | 0 | 50 | 30 | 50 | 40 | 80 | 20 | 50 | 0 | 0 | 0 | 0 | 20 | 30 | Plant response rating, Pigweed ([10]; 31 g ai/ha): 70; Plant response rating, Pigweed [10, 16]: 90; Plant response rating, Barnyardgrass ([11]; 31 g ai/ha): 0; Plant response rating, Barnyardgrass [11, 16]: 30; Plant response rating, Pigweed [12, 17]: 90; Pigweed plant response rating [12]: 100; Plant response rating, Ryegrass, Italian ([13]; 31 g ai/ha): 0; Plant response rating, Ryegrass, Italian [13, 16]: 0; Plant response rating, Galium ([14]; 31 g ai/ha): 90; Plant response rating, Galium [14, 16]: 90; Plant response rating, Kochia (kochia (Bassia scoparia) [15]; [17]): 30; Kochia plant response rating (kochia (Bassia scoparia) [15]): 80
Cc1ccc(C(=O)N2CCC(C)CC2)cc1NS(=O)(=O)C(F)(F)F [Compound 7] |  |  |  |  |  |  |  |  |  |  |  |  |  |  |  |  |  |  |  |  | Plant response rating, Kochia (kochia (Bassia scoparia) [1]; [18]): 40; Plant response rating, Ragweed ([2]; 1000 g ai/ha): 80; Plant response rating, Ryegrass, Italian ([3]; 1000 g ai/ha): 60; Plant response rating, Barnyardgrass ([4]; 1000 g ai/ha): 80; Plant response rating, Wheat [5, 18]: 0; Plant response rating, Ragweed [6, 18]: 20; Plant response rating, Foxtail, Giant ([7]; 1000 g ai/ha): 90; Plant response rating, Blackgrass [8, 18]: 20; Plant response rating, Foxtail, Giant [9, 18]: 0; Plant response rating, Corn (corn (Zea mays); [18]): 0; Plant response rating, Pigweed [10, 18]: 20; Plant response rating, Barnyardgrass [11, 18]: 20; Plant response rating, Pigweed ([12]; 1000 g ai/ha): 80; Plant response rating, Ryegrass, Italian [13, 18]: 90; Plant response rating, Galium [14, 18]: 40; Plant response rating, Kochia (kochia (Bassia scoparia) [15]; 1000 g ai/ha): 30
